Assays:
[1] = molecular target: T1, human M3 muscarinic acetylcholine receptor (hM3R) (Homo sapiens, UniProt P20309); test: M3 (h) functional GPCR assay, antagonist effect, intracellular Ca2+; format: cell-based; settings: CHO
T1 construct: host or cells: CHO cells

[2] = molecular target: T1, human M3 muscarinic acetylcholine receptor (hM3R); test: M3 (h) functional GPCR assay, agonist effect, intracellular Ca2+; format: cell-based; settings: 100 µM; % of control response to 1-µM acetylcholine; CHO cells
[3] = molecular target: T2, human M2 muscarinic acetylcholine receptor (hM2R) (Homo sapiens, UniProt P08172); test: M2 (h) functional GPCR assay, antagonist effect, cAMP HTRF; format: cell-based; settings: CHO
T2 construct: host or cells: CHO cells
T2 sequence (P08172 1-466): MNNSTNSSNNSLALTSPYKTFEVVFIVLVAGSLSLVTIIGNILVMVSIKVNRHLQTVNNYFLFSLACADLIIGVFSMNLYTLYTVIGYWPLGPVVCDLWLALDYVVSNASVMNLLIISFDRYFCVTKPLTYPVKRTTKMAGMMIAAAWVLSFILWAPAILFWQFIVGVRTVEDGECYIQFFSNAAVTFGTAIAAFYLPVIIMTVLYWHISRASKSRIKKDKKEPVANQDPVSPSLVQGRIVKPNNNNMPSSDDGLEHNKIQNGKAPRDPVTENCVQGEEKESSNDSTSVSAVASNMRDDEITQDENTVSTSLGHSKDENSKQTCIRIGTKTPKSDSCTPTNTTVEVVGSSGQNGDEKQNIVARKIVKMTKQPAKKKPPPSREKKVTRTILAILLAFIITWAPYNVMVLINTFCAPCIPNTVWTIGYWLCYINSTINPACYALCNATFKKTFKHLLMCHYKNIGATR

[4] = system: recombinant human MAO-A (hMAO-A); parameters: method as in earlier work; settings: ref 27 (Dittman et al., 2004); read-out: IC50, recombinant human MAO-A (literature); cited from earlier work
[5] = molecular target: T3, human M4 muscarinic acetylcholine receptor (hM4R) (Homo sapiens, UniProt P08173); test: M4 (h) functional GPCR assay, antagonist effect, cAMP HTRF; format: cell-based; settings: CHO
T3 construct: host or cells: CHO cells
T3 sequence (P08173 1-479): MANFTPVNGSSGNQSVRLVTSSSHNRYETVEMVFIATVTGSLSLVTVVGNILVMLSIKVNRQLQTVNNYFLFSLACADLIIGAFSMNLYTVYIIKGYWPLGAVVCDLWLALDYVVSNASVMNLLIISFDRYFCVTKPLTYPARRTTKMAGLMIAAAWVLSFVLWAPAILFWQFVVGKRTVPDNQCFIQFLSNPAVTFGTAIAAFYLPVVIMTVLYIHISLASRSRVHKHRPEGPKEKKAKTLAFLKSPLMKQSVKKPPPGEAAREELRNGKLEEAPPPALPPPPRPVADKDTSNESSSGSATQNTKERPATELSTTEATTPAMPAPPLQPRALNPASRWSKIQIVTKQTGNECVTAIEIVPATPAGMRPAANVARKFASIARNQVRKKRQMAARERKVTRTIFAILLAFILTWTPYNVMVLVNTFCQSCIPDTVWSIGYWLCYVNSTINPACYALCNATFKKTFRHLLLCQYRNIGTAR
Protocol: The cellular and nuclear receptor functional assays were carried out at Eurofins Cerep (Le Bois I’ Eveque, France) following the in-house protocols (catalog items G029-1262, G029-1474, G030-1658, G030-1659, G031-1243, G031-1244, G032-1670, G032-1671, G033-4217, and G033-4212). The experimental methods for the assays were as described in the previous reports and the general methodology is summarized in the Supplementary Information Table S1. Recombinant human Chinese hamster ovary (CHO) cells and rat basophilic leukemic (RBL) cells were transfected with the GPCR genes of interest (hM1R, hM2R, hM3R, hM4R, and hM5R). The functional assay provided the readouts based on the measurements of calcium ion mobilization (for the Gαq/11-coupled receptors) and cAMP level (for the Gαi/o-coupled receptors).
Stable CHO cells expressing the transfected cDNA of human M2 receptors were suspended in a medium containing HBSS buffer complemented with 20-mM HEPES buffer (pH 7.4) and 500-µM IBMX, whereas the stable human M4 receptor cloned CHO cells were distributed in HBSS buffer with 20-mM HEPES/NaOH (pH 7.4), 70-mM NaCl, 5.33-mM KCl, 1.25-mM CaCl2, 0.5-mM MgCl2, 0.41-mM MgSO4, 0.441-mM KH2PO4, 0.3-mM Na2HPO4, 0.1% glucose, and 500-µM IBMX. […] The cAMP level was calculated as the ratio of the signal measured at 665 nm to that measured at 620 nm. […]
Assay Source Stimulus Incubation Measured Detection References […]

T1 sequence (P20309 whole entry): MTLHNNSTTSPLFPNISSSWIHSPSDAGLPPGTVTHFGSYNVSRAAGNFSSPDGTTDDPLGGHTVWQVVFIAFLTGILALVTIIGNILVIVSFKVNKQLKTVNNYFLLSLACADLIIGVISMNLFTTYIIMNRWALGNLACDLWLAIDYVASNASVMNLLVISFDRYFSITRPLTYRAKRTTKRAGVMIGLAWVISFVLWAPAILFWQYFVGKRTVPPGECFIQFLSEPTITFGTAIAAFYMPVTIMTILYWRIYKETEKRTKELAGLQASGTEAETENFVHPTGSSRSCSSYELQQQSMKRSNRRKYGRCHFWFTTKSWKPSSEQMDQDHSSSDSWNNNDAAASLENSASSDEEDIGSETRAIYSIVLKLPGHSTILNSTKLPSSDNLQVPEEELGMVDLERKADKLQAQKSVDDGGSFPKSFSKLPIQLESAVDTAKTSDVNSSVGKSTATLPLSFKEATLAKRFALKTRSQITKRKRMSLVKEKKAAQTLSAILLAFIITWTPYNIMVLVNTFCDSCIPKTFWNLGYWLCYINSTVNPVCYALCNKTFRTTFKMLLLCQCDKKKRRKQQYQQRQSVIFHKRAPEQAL

In the case of `Cc1coc2c1C(=O)C(=O)c1c-2ccc2c(C)cccc12` [Tanshinone I], the inhibition at 100 µM [1] is reported as 3.3 ± 11.2%, the “% Stimulation, M3” value [2] is reported as −2.3 ± 0.21% and the inhibition at 100 µM [3] is reported as 35.8 ± 4.74%. The IC50 [4] was 80 µM and the inhibition at 100 µM [5] was 56.1 ± 2.4%.
